Measurements: ChEMBL document CHEMBL1201862, “PubChem BioAssay data set” (2004)
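Following 48 hours of exposure in 96-well plates, responses at five concentrations were used to interpolate endpoints linearly. At the GI50, growth is halved.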 Calls of active or inactive are those of the source. No stated cut-off is given here; in the data, active = GI50 up to about 1.1 µM and inactive = higher.

How the values were obtained:
Assay in all cases: inhibition of tumour cell growth, NCI panel, 48 h
SNB-75 = test system: SNB-75
PC-3 = test system: PC-3
MOLT-4 = test system: MOLT-4
IGROV-1 = test system: IGROV-1
BT-549 = test system: BT-549
DU-145 = test system: DU-145
HL-60 = test system: HL-60
ACHN = test system: ACHN
SN12C = test system: SN12C
M14 = test system: M14
Malme-3M = test system: Malme-3M
K562 = test system: K562
OVCAR-8 = test system: OVCAR-8
HT-29 = test system: HT-29
OVCAR-5 = test system: OVCAR-5
NCI/ADR-RES = test system: NCI/ADR-RES
HCT-15 = test system: HCT-15
786-0 = test system: 786-0
SK-OV-3 = test system: SK-OV-3
RPMI-8226 = test system: RPMI-8226
CCRF-CEM = test system: CCRF-CEM
NCI-H460 = test system: NCI-H460
TK-10 = test system: TK-10
SK-MEL-2 = test system: SK-MEL-2
SNB-19 = test system: SNB-19
Hs-578T = test system: Hs-578T
MCF7 = test system: MCF7
A549 = test system: A549
NCI-H522 = test system: NCI-H522
HCT-116 = test system: HCT-116
MDA-MB-435 = test system: MDA-MB-435
UACC-257 = test system: UACC-257
HOP-62 = test system: HOP-62
UACC-62 = test system: UACC-62
CAKI-1 = test system: CAKI-1
RXF 393 = test system: RXF 393
LOX IMVI = test system: LOX IMVI
OVCAR-3 = test system: OVCAR-3
MDA-N = test system: MDA-N
KM12 = test system: KM12
NCI-H226 = test system: NCI-H226
SW-620 = test system: SW-620
SR = test system: SR
SK-MEL-28 = test system: SK-MEL-28
NCI-H23 = test system: NCI-H23
MDA-MB-231 = test system: MDA-MB-231
HOP-92 = test system: HOP-92
SF-539 = test system: SF-539
T47D = test system: T47D
SF-295 = test system: SF-295
OVCAR-4 = test system: OVCAR-4
SF-268 = test system: SF-268
U-251 = test system: U-251
EKVX = test system: EKVX
COLO 205 = test system: COLO 205
SK-MEL-5 = test system: SK-MEL-5

**Q.** How did the GI50 (SNB-75) turn out when CC1=NN2CCC(=O)N=C2S1 was run?
**A.** > 100 µM (inactive)

**Q.** And the GI50 (PC-3)?
**A.** > 100 µM (inactive)

**Q.** What about the GI50 (MOLT-4) of the same compound?
**A.** > 100 µM (inactive)

**Q.** What about the GI50 (IGROV-1) of the same compound?
**A.** > 100 µM (inactive)

**Q.** What about the GI50 (BT-549) of the same compound?
**A.** > 100 µM (inactive)

**Q.** And the GI50 (DU-145)?
**A.** > 100 µM (inactive)

**Q.** And the GI50 (HL-60)?
**A.** > 100 µM (inactive)

**Q.** And the GI50 (ACHN)?
**A.** > 100 µM (inactive)

**Q.** And the GI50 (SN12C)?
**A.** > 100 µM (inactive)

**Q.** And the GI50 (M14)?
**A.** > 100 µM (inactive)

**Q.** What about the GI50 (Malme-3M) of the same compound?
**A.** > 100 µM (inactive)

**Q.** And the GI50 (K562)?
**A.** > 100 µM (inactive)

**Q.** What about the GI50 (OVCAR-8) of the same compound?
**A.** > 100 µM (inactive)

**Q.** What about the GI50 (HT-29) of the same compound?
**A.** > 100 µM (inactive)

**Q.** And the GI50 (OVCAR-5)?
**A.** > 100 µM (inactive)

**Q.** And the GI50 (NCI/ADR-RES)?
**A.** > 100 µM (inactive)

**Q.** And the GI50 (HCT-15)?
**A.** > 100 µM

**Q.** What about the GI50 (786-0) of the same compound?
**A.** > 100 µM (inactive)

**Q.** What about the GI50 (SK-OV-3) of the same compound?
**A.** > 100 µM (inactive)

**Q.** What about the GI50 (RPMI-8226) of the same compound?
**A.** > 100 µM (inactive)

**Q.** And the GI50 (CCRF-CEM)?
**A.** > 100 µM (inactive)

**Q.** And the GI50 (NCI-H460)?
**A.** > 100 µM (inactive)

**Q.** What about the GI50 (TK-10) of the same compound?
**A.** > 100 µM (inactive)

**Q.** And the GI50 (SK-MEL-2)?
**A.** > 100 µM (inactive)

**Q.** And the GI50 (SNB-19)?
**A.** > 100 µM (inactive)

**Q.** What about the GI50 (Hs-578T) of the same compound?
**A.** > 100 µM (inactive)

**Q.** What about the GI50 (MCF7) of the same compound?
**A.** > 100 µM (inactive)

**Q.** What about the GI50 (A549) of the same compound?
**A.** > 100 µM (inactive)

**Q.** And the GI50 (NCI-H522)?
**A.** > 100 µM (inactive)

**Q.** And the GI50 (HCT-116)?
**A.** > 100 µM (inactive)

**Q.** And the GI50 (MDA-MB-435)?
**A.** > 100 µM (inactive)

**Q.** What about the GI50 (UACC-257) of the same compound?
**A.** > 100 µM (inactive)

**Q.** What about the GI50 (HOP-62) of the same compound?
**A.** > 100 µM (inactive)

**Q.** What about the GI50 (UACC-62) of the same compound?
**A.** > 100 µM (inactive)

**Q.** What about the GI50 (CAKI-1) of the same compound?
**A.** > 100 µM (inactive)

**Q.** And the GI50 (RXF 393)?
**A.** > 100 µM (inactive)

**Q.** And the GI50 (LOX IMVI)?
**A.** > 100 µM (inactive)

**Q.** What about the GI50 (OVCAR-3) of the same compound?
**A.** > 100 µM (inactive)

**Q.** What about the GI50 (MDA-N) of the same compound?
**A.** > 100 µM (inactive)

**Q.** And the GI50 (KM12)?
**A.** > 100 µM (inactive)

**Q.** What about the GI50 (NCI-H226) of the same compound?
**A.** > 100 µM (inactive)

**Q.** What about the GI50 (SW-620) of the same compound?
**A.** > 100 µM (inactive)

**Q.** What about the GI50 (SR) of the same compound?
**A.** > 100 µM (inactive)

**Q.** What about the GI50 (SK-MEL-28) of the same compound?
**A.** > 100 µM (inactive)

**Q.** And the GI50 (NCI-H23)?
**A.** > 100 µM (inactive)

**Q.** And the GI50 (MDA-MB-231)?
**A.** > 100 µM (inactive)

**Q.** What about the GI50 (HOP-92) of the same compound?
**A.** > 100 µM (inactive)

**Q.** What about the GI50 (SF-539) of the same compound?
**A.** > 100 µM (inactive)

**Q.** What about the GI50 (T47D) of the same compound?
**A.** > 100 µM (inactive)

**Q.** What about the GI50 (SF-295) of the same compound?
**A.** > 100 µM (inactive)

**Q.** What about the GI50 (OVCAR-4) of the same compound?
**A.** > 100 µM (inactive)

**Q.** What about the GI50 (SF-268) of the same compound?
**A.** > 100 µM (inactive)

**Q.** And the GI50 (U-251)?
**A.** > 100 µM (inactive)

**Q.** What about the GI50 (EKVX) of the same compound?
**A.** > 100 µM (inactive)

**Q.** And the GI50 (COLO 205)?
**A.** > 100 µM (inactive)

**Q.** What about the GI50 (SK-MEL-5) of the same compound?
**A.** > 100 µM (inactive)
